For 15 molecules, TGI results are on record in PubChem BioAssay (NCI).

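The compound was tested at five concentrations on cells cultured in 96-well plates, with a 48-hour exposure period. Definition used: TGI = concentration required for complete inhibition of growth.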 A value given as a limit tells only on which side of the number the result lay.

Among the test systems are HL-60(TB) leukemia; MCF7 breast; OVCAR-4 ovarian; ACHN renal; U251 CNS; OVCAR-3 ovarian; HCT-15 colon; HCT-116 colon; SNB-19 CNS; MALME-3M melanoma; EKVX NSCLC; CCRF-CEM leukemia; SNB-75 CNS; UO-31 renal.
Test in all cases: growth of human tumour cells (NCI), 48 h

Take `COc1cc2c(cc1C)NC(=O)/C2=C\c1cccnc1`: the TGI with HL-60(TB) leukemia was more than 100 µM; with MCF7 breast, 47.8 µM; in the test on OVCAR-4 ovarian, 40.4 µM; in the test on ACHN renal it was more than 100 µM; in the test with U251 CNS, more than 100 µM; in the test on OVCAR-3 ovarian, 33.6 µM. Further, the TGI was more than 100 µM with HCT-15 colon; more than 100 µM in the test on HCT-116 colon; 40.4 µM with SNB-19 CNS; 30.2 µM in the test with MALME-3M melanoma; 52.9 µM in the test on EKVX NSCLC; more than 100 µM in the test on CCRF-CEM leukemia. Further, the figures for the TGI in the test on SNB-75 CNS and in the test on UO-31 renal were 50.2 µM and 39.5 µM, respectively.

For the molecule `O=c1ccc(-c2ccc(-n3ccnc3)cc2)nn1CCO`, the TGI with HL-60(TB) leukemia, with MCF7 breast, in the test with OVCAR-4 ovarian, with ACHN renal, in the test on U251 CNS and in the test with OVCAR-3 ovarian was more than 100 µM in each case. The TGI in the test on HCT-15 colon, with HCT-116 colon, in the test with SNB-19 CNS, with MALME-3M melanoma, in the test with EKVX NSCLC and in the test with CCRF-CEM leukemia was more than 100 µM each time. For the same molecule, the TGI in the test on SNB-75 CNS and in the test on UO-31 renal was more than 100 µM throughout.

Take `CSC1=C(C)S/C(=C\c2ccc(/C=C3\SC(C)=C(SC)S3)cc2)S1`: the TGI in the test on HL-60(TB) leukemia, with MCF7 breast, in the test on OVCAR-4 ovarian, in the test with ACHN renal, with U251 CNS and with OVCAR-3 ovarian was more than 100 µM in each case. In addition, the TGI with HCT-15 colon, in the test on HCT-116 colon, in the test on SNB-19 CNS, with MALME-3M melanoma, in the test on EKVX NSCLC and in the test with CCRF-CEM leukemia was more than 100 µM in each case. The TGI in the test with SNB-75 CNS and with UO-31 renal was more than 100 µM in each case.

As to `CCC(C)C1=C(O)[N+]2([O-])Oc3ccc(-c4c(O)c(O)c(-c5ccc(O)cc5)c(OC(C)=O)c4OC(C)=O)cc3OC2(C(C)CC)C(=O)N1O` (stereo not drawn), the TGI in the test with HL-60(TB) leukemia, with MCF7 breast, with OVCAR-4 ovarian, with ACHN renal, in the test with U251 CNS and in the test on OVCAR-3 ovarian was more than 50 µM in each case. The TGI with HCT-15 colon was more than 50 µM; with HCT-116 colon, more than 50 µM; with SNB-19 CNS, more than 50 µM; in the test with MALME-3M melanoma it was more than 50 µM; in the test on EKVX NSCLC, more than 50 µM; in the test on CCRF-CEM leukemia, 9.65 µM. Moreover, the TGI with SNB-75 CNS and in the test with UO-31 renal was more than 50 µM each time.

Regarding `O=S(=O)(O)c1ccc(N=Nc2c(O)ccc3ccccc23)cc1`, the TGI in the test with HL-60(TB) leukemia, with MCF7 breast, in the test on OVCAR-4 ovarian, in the test on ACHN renal, in the test with U251 CNS and in the test on OVCAR-3 ovarian was more than 100 µM each time. The TGI with HCT-15 colon, in the test with HCT-116 colon, in the test with SNB-19 CNS, with MALME-3M melanoma, with EKVX NSCLC and in the test with CCRF-CEM leukemia was more than 100 µM each time. For the same molecule, the TGI in the test on SNB-75 CNS and in the test on UO-31 renal was more than 100 µM in each case.

On to `CC(=O)N1c2ccccc2C2=NN=C(N(C)C)SC21` (stereo not drawn), for which the TGI in the test on HL-60(TB) leukemia is 5.07 µM; in the test on MCF7 breast, 14.9 µM; with OVCAR-4 ovarian, 29.8 µM; in the test on ACHN renal it was 10.4 µM; with U251 CNS it was 10.8 µM; in the test on OVCAR-3 ovarian, 9.46 µM. Besides, the TGI with HCT-15 colon was 15.6 µM; in the test with HCT-116 colon, 10.1 µM; in the test on SNB-19 CNS, 23.5 µM; in the test on MALME-3M melanoma it was 12.9 µM; in the test on EKVX NSCLC it was 12.8 µM; with CCRF-CEM leukemia, 5.31 µM. For the same molecule, the values for the TGI in the test with SNB-75 CNS and in the test with UO-31 renal were 26.4 µM and 9.89 µM, respectively.

For `CC1(C)C2CC1C(/C=N\OCC(=O)O)=CC2=O` (stereo not drawn), the TGI with HL-60(TB) leukemia, in the test with MCF7 breast, in the test with OVCAR-4 ovarian, in the test on ACHN renal, in the test on U251 CNS and in the test with OVCAR-3 ovarian was more than 100 µM each time. Moreover, the TGI in the test with HCT-15 colon, in the test on HCT-116 colon, in the test with SNB-19 CNS, with MALME-3M melanoma, with EKVX NSCLC and with CCRF-CEM leukemia was more than 100 µM each time. The TGI in the test with SNB-75 CNS is 97.9 µM; in the test on UO-31 renal, more than 100 µM.

Regarding `N#CCN(Cc1ccccc1)[C@H]1CCC[C@]1(O)/C=C/c1ccc2c(c1)OCO2`, the TGI with HL-60(TB) leukemia was 34.9 µM; in the test on MCF7 breast it was 39.6 µM; in the test on OVCAR-4 ovarian, more than 100 µM; in the test on ACHN renal it was more than 100 µM; with U251 CNS, 38.6 µM; in the test with OVCAR-3 ovarian, 57.6 µM. For the same molecule, the TGI with HCT-15 colon was 60.2 µM; with SNB-19 CNS, 76.3 µM; in the test with MALME-3M melanoma, 32.1 µM; with EKVX NSCLC, more than 100 µM; in the test on CCRF-CEM leukemia, 53.1 µM; in the test with SNB-75 CNS, more than 100 µM. In the test with UO-31 renal, this molecule showed a TGI of more than 100 µM.

Regarding `CCCCC1=C(C(=O)N2CCOCC2)C2(OCCO2)C1Cl` (stereo not drawn), the TGI with HL-60(TB) leukemia was more than 100 µM; with MCF7 breast it was more than 100 µM; in the test with OVCAR-4 ovarian, more than 100 µM; with ACHN renal it was 52.1 µM; in the test on U251 CNS, more than 100 µM; with HCT-15 colon, more than 100 µM. Besides, the TGI in the test on HCT-116 colon, in the test with SNB-19 CNS, with MALME-3M melanoma, in the test with EKVX NSCLC, with CCRF-CEM leukemia and in the test on SNB-75 CNS was more than 100 µM in each case. The molecule further displayed a TGI with UO-31 renal of more than 100 µM.

For the molecule `CC(C)/C(Cl)=N/OC(NC(=O)Nc1ccc(Cl)c(Cl)c1)(C(F)(F)F)C(F)(F)F`, the TGI with HL-60(TB) leukemia is 6.39 µM; in the test with MCF7 breast, more than 50.2 µM; in the test on OVCAR-4 ovarian, 25.8 µM; with ACHN renal it was 24.9 µM; in the test on U251 CNS, 33.2 µM; with OVCAR-3 ovarian it was 11.3 µM. Besides, the TGI in the test on HCT-15 colon worked out at 28.9 µM; in the test with HCT-116 colon it was 19.7 µM; with SNB-19 CNS, 41 µM; in the test on MALME-3M melanoma, 4.55 µM; in the test with EKVX NSCLC it was 38.1 µM; with CCRF-CEM leukemia, 5.71 µM. The TGI in the test on SNB-75 CNS and in the test on UO-31 renal was 31.3 µM each time.

For the molecule `COc1ccc(C[C@H]2NC[C@H](OC(C)=O)[C@H]2OC(C)=O)cc1`, the TGI in the test on HL-60(TB) leukemia was 0.326 µM; in the test on MCF7 breast, more than 100 µM; with OVCAR-4 ovarian, 0.706 µM; in the test with ACHN renal, 0.853 µM; in the test with U251 CNS, 1.6 µM; in the test on OVCAR-3 ovarian it was 0.85 µM. Moreover, the TGI in the test with HCT-15 colon came to 0.975 µM; in the test on HCT-116 colon, 0.685 µM; in the test on SNB-19 CNS, 0.446 µM; with MALME-3M melanoma, 0.561 µM; with EKVX NSCLC it was 0.606 µM; in the test with CCRF-CEM leukemia, 1.18 µM. Moreover, the TGI came to 0.362 µM in the test on SNB-75 CNS and 0.371 µM in the test with UO-31 renal.

For the molecule `Cc1ccc(-n2nnc3c(NNc4ccccc4)n[nH]c(=O)c32)cc1`, the TGI in the test with HL-60(TB) leukemia, with MCF7 breast, with OVCAR-4 ovarian, in the test on ACHN renal, with U251 CNS and with HCT-15 colon was more than 100 µM each time. The TGI with HCT-116 colon, in the test with SNB-19 CNS, in the test on MALME-3M melanoma, in the test on EKVX NSCLC, with CCRF-CEM leukemia and in the test on SNB-75 CNS was more than 100 µM each time.

As for `O=c1oc2ccccc2cc1-c1nc2ccccc2c(=O)[nH]1`, the TGI in the test on HL-60(TB) leukemia, in the test with MCF7 breast, with OVCAR-4 ovarian, with ACHN renal, in the test on U251 CNS and with HCT-15 colon was more than 100 µM in each case. The TGI in the test with HCT-116 colon, in the test on SNB-19 CNS, in the test on MALME-3M melanoma, in the test with EKVX NSCLC, with CCRF-CEM leukemia and in the test on SNB-75 CNS was more than 100 µM each time. For the same molecule, the TGI in the test with UO-31 renal was more than 100 µM.

Turning to `COC(=O)CC[N+]1([O-])CC1`, the TGI with HL-60(TB) leukemia, in the test with MCF7 breast, with OVCAR-4 ovarian, with ACHN renal, in the test with U251 CNS and in the test with HCT-15 colon was more than 100 µM throughout. The TGI in the test on HCT-116 colon, in the test on SNB-19 CNS, in the test on MALME-3M melanoma, in the test on EKVX NSCLC, with CCRF-CEM leukemia and with SNB-75 CNS was more than 100 µM each time. Moreover, the TGI in the test with UO-31 renal is more than 100 µM.

With `N#Cc1cccc(Nc2ccccc2SSc2ccccc2Nc2cccc(C#N)c2)c1`, the TGI with HL-60(TB) leukemia is 14.8 µM; in the test on MCF7 breast, 16.5 µM; with OVCAR-4 ovarian, more than 21.5 µM; with ACHN renal, more than 21.5 µM; in the test on U251 CNS, 12 µM; in the test on OVCAR-3 ovarian it was more than 21.5 µM. Further, the TGI in the test with HCT-15 colon was more than 21.5 µM; with HCT-116 colon, 16.5 µM; in the test with SNB-19 CNS, 19.5 µM; in the test with MALME-3M melanoma, 15.8 µM; in the test on EKVX NSCLC, more than 21.5 µM; in the test with CCRF-CEM leukemia, 14.9 µM. In the test with SNB-75 CNS, this molecule showed a TGI of more than 21.5 µM.
